# Measurements as given in ChEMBL document CHEMBL4819010, “Design, synthesis, and biological studies of novel 3-benzamidobenzoic acid derivatives as farnesoid X receptor partial agonist” (Eur J Med Chem, 2021).
# pEC50: −log10 of the molar value. Active and inactive are the calls of the source. No cut-off for these calls is given here.
# Experiments:
# Bile acid receptor = molecular target: T1, Bile acid receptor (Homo sapiens, UniProt Q96RI1); assay: Agonist activity at FXR-LBD (unknown origin) assessed by ligand binding ability incubated for 3 hrs in absence of light measured by TR-FRET Coactivator assay
# T1 sequence (Q96RI1 whole entry): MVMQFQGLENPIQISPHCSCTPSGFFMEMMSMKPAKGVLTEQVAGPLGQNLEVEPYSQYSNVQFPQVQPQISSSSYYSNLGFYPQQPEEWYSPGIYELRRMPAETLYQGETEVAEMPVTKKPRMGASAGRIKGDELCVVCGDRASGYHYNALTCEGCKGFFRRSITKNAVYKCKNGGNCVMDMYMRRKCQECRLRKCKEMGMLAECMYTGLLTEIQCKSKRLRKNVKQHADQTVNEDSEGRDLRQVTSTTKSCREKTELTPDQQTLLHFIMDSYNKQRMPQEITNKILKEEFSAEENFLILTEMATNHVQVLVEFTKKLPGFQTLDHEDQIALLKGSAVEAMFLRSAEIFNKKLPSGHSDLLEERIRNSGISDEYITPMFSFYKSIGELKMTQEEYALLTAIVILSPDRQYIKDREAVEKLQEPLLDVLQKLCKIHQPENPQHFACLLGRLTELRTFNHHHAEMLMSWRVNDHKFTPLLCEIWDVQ
# [1] = Agonist activity at FXR (unknown origin)/human RXR heterodimer expressing in human HepG2 cells co-expressing pCMV gal assessed luciferase activity measured after 24 hrs by cell based luciferase transactivation assay; details: HepG2, 24 h
# HepG2 = assay: Agonist activity at FXR (unknown origin)/human RXR heterodimer expressing in human HepG2 cells co-expressing pCMV gal assessed luciferase activity measured after 24 hrs by cell based luciferase transactivation assay relative to […]; details: dose 3.0 µM
# Mus musculus [2] = assay: Hepatoprotective activity in APAP-induced C57BL/6 mouse liver injury model assessed as increase in catalase mRNA expression at 30 mg/kg, bid oral gavage measured after 5 days by qRT-PCR method; format: functional, organism-based; details: time 5.0 day
# Mus musculus [3] = assay: Hepatoprotective activity in APAP-induced C57BL/6 mouse liver injury model assessed as decrease in hepatic haemorrhage at 30 mg/kg, bid oral gavage for 5 days measured after 12 hrs of APAP injection; format: functional, organism-based; details: time 5.0 day
# [4] = molecular target: T2, Bile acid receptor (Mus musculus) (UniProt Q60641); assay: In vivo agonist activity at FXR in C57BL/6 mouse assessed as upregulation of SHP mRNA expression at 30 mg/kg, bid ip measured after 5 days by RT-PCR method; format: functional, organism-based; details: time 5.0 day
# T2 sequence (whole entry): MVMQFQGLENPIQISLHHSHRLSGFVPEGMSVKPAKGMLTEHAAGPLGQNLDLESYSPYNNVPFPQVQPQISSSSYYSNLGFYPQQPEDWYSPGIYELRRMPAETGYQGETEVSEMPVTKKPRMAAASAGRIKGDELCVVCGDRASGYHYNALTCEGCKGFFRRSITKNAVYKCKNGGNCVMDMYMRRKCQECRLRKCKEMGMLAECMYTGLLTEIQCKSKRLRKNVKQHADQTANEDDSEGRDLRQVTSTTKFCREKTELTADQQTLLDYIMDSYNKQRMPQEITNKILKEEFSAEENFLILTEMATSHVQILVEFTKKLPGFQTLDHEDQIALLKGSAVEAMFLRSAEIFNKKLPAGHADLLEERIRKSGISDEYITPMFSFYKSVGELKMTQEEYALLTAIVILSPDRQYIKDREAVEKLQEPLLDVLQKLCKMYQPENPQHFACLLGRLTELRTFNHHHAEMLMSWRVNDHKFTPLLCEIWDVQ
# Mus musculus [5] = assay: Hepatoprotective activity in APAP-induced C57BL/6 mouse liver injury model assessed as decrease in […] at 30 mg/kg, bid oral gavage measured after 5 days; format: functional, organism-based; details: time 5.0 day
# Mus musculus [6] = assay: Hepatoprotective activity in APAP-induced C57BL/6 mouse liver injury model assessed as decrease in hepatic necrosis at 30 mg/kg, bid oral gavage for 5 days measured after 12 hrs of APAP injection; format: functional, organism-based; details: time 5.0 day
# Mus musculus [7] = assay: Hepatoprotective activity in APAP-induced C57BL/6 mouse liver injury model assessed as decrease in serum AST levels at 30 mg/kg, bid oral gavage measured after 5 days; format: functional, organism-based; details: time 5.0 day
# Mus musculus [8] = assay: Hepatoprotective activity in APAP-induced C57BL/6 mouse liver injury model assessed as decrease in serum ALT levels at 30 mg/kg, bid oral gavage measured after 5 days; format: functional, organism-based; details: time 5.0 day
# Mus musculus [9] = assay: Hepatoprotective activity in APAP-induced C57BL/6 mouse liver injury model assessed as increase in SOD1 mRNA expression at 30 mg/kg, bid oral gavage measured after 5 days by qRT-PCR method; format: functional, organism-based; details: time 5.0 day
# [10] = molecular target: T2, Bile acid receptor (Mus musculus); assay: In vivo agonist activity at FXR in C57BL/6 mouse assessed as upregulation of OST beta mRNA expression at 30 mg/kg, bid ip measured after 5 days by RT-PCR method; format: functional, organism-based; details: time 5.0 day
# Mus musculus [11] = assay: Hepatoprotective activity in APAP-induced C57BL/6 mouse liver injury model assessed as increase in Gpx1 mRNA expression at 30 mg/kg, bid oral gavage measured after 5 days by qRT-PCR method; format: functional, organism-based; details: time 5.0 day
# Mus musculus [12] = assay: Hepatoprotective activity in APAP-induced C57BL/6 mouse liver injury model assessed as increase in SOD2 mRNA expression at 30 mg/kg, bid oral gavage measured after 5 days by qRT-PCR method; format: functional, organism-based; details: time 5.0 day
# [13] = molecular target: T2, Bile acid receptor (Mus musculus); assay: In vivo agonist activity at FXR in C57BL/6 mouse assessed as upregulation of IBABP mRNA expression at 30 mg/kg, bid ip measured after 5 days by RT-PCR method; format: functional, organism-based; details: time 5.0 day
# [14] = molecular target: T2, Bile acid receptor (Mus musculus); assay: In vivo agonist activity at FXR in C57BL/6 mouse assessed as increase of BSEP mRNA expression at 30 mg/kg, bid ip measured after 5 days by RT-PCR method; format: functional, organism-based; details: time 5.0 day
# [15] = molecular target: T2, Bile acid receptor (Mus musculus); assay: In vivo agonist activity at FXR in C57BL/6 mouse assessed as inhibition of APAP-induced FXR decline at 30 mg/kg, bid ip measured after 5 days by RT-PCR method; format: functional, organism-based; details: time 5.0 day
# Mus musculus [16] = assay: Hepatoprotective activity in APAP-induced C57BL/6 mouse liver injury model assessed as decrease in hepatic degeneration at 30 mg/kg, bid oral gavage for 5 days measured after 12 hrs of APAP injection; format: functional, organism-based; details: time 5.0 day
# [17] = molecular target: T2, Bile acid receptor (Mus musculus); assay: In vivo agonist activity at FXR in C57BL/6 mouse assessed as decrease of CYP7A1 mRNA expression at 30 mg/kg, bid ip measured after 5 days by RT-PCR method; format: functional, organism-based; details: time 5.0 day
# Mus musculus [18] = assay: Hepatoprotective activity in APAP-induced C57BL/6 mouse liver injury model assessed as increase in Gclm mRNA expression at 30 mg/kg, bid oral gavage measured after 5 days by qRT-PCR method; format: functional, organism-based; details: time 5.0 day
# Mus musculus [19] = assay: Hepatoprotective activity in APAP-induced C57BL/6 mouse liver injury model assessed as decrease in serum LDH levels at 30 mg/kg, bid oral gavage measured after 5 days; format: functional, organism-based; details: time 5.0 day
# Mus musculus [20] = assay: Hepatoprotective activity in APAP-induced C57BL/6 mouse liver injury model assessed as increase in GSH levels at 30 mg/kg, bid oral gavage measured after 5 days; format: functional, organism-based; details: time 5.0 day
# [21] = molecular target: T2, Bile acid receptor (Mus musculus); assay: In vivo agonist activity at FXR in C57BL/6 mouse assessed as increase of UGT1A1 mRNA expression at 30 mg/kg, bid ip measured after 5 days by RT-PCR method; format: functional, organism-based; details: time 5.0 day
compound,measurement,setting,value
CC(C)(Oc1cccc(NC(=O)c2ccc(Oc3ccccc3)cc2)c1)C(=O)O,pEC50,Bile acid receptor,< 5.00
O=C(O)c1cccc(NC(=O)c2ccc(-c3ccccc3)cc2)c1,pEC50,Bile acid receptor,< 5.00
Cc1ccccc1-c1cccc(C(=O)Nc2cccc(C(=O)O)c2)c1,pEC50,[1],6.41
same,pEC50,Bile acid receptor,7.17
same,Activity,HepG2,23.1%
O=C(O)c1cccc(NC(=O)c2cccc(-c3ccccc3)c2)c1,Activity,Mus musculus [2],Active
same,pEC50,[1],6.71
same,Activity,Mus musculus [3],Active
same,Activity,[4],Active
same,pEC50,Bile acid receptor,7.60
same,Activity,Mus musculus [5],Active
same,Activity,Mus musculus [6],Active
same,Activity,Mus musculus [7],Active
same,Activity,Mus musculus [8],Active
same,Activity,HepG2,28.6%
same,Activity,Mus musculus [9],Active
same,Activity,[10],Active
same,Activity,Mus musculus [11],Active
same,Activity,Mus musculus [12],Active
same,Activity,[13],Active
same,Activity,[14],Active
same,Activity,[15],Active
same,Activity,Mus musculus [16],Active
same,Activity,[17],Active
same,Activity,Mus musculus [18],Active
same,Activity,Mus musculus [19],Active
same,Activity,Mus musculus [20],Active
same,Activity,[21],Active
O=C(O)COc1cccc(NC(=O)c2ccc(Oc3ccccc3)cc2)c1,pEC50,Bile acid receptor,< 5.00
COc1ccccc1C(=O)Nc1cccc(C(=O)O)c1,pEC50,Bile acid receptor,< 5.00
O=C(O)c1ccc(NC(=O)c2ccc(Oc3ccccc3)cc2)cc1,pEC50,Bile acid receptor,< 5.00
Cc1ccc(COc2cccc(C(=O)Nc3cccc(C(=O)O)c3)c2)cc1,pEC50,Bile acid receptor,5.85
O=C(O)c1cccc(NC(=O)c2nc(-c3ccccc3)cs2)c1,pEC50,Bile acid receptor,5.54
CCOc1cccc(C(=O)Nc2cccc(C(=O)O)c2)c1,pEC50,Bile acid receptor,5.63
CCCOc1cccc(C(=O)Nc2cccc(C(=O)O)c2)c1,pEC50,Bile acid receptor,5.67
CCCCCOc1cccc(C(=O)Nc2cccc(C(=O)O)c2)c1,pEC50,Bile acid receptor,5.60
Cc1cccc(COc2ccc(C(=O)Nc3cccc(C(=O)O)c3)cc2)c1,pEC50,Bile acid receptor,6.59
CO/N=C(/COc1ccc(C(=O)Nc2cccc(C(=O)O)c2)cc1)c1ccccc1,pEC50,Bile acid receptor,< 5.00
CC(C)CCOc1cccc(C(=O)Nc2cccc(C(=O)O)c2)c1,pEC50,Bile acid receptor,5.56
O=C(O)c1cccc(NC(=O)c2cccc(OCC3CC3)c2)c1,pEC50,Bile acid receptor,5.90
O=C(O)c1cccc(NC(=O)c2ccc(OCc3ccccc3)cc2)c1,pEC50,Bile acid receptor,6.87
O=C(O)c1cccc(NC(=O)c2ccc(OCc3cccc(-c4ccccc4)c3)cc2)c1,pEC50,Bile acid receptor,6.50
